Experimental data as given in US10654816B2, “Compounds and compositions for treating conditions associated with NLRP activity” (NOVARTIS INFLAMMASOME RESEARCH, INC., priority 2017, dated 2020).

What follows are molecules tested on IL-1β production in PMA-differentiated THP-1 cells (assay: IL-1β production in PMA-differentiated THP-1 cells stimulated with gramicidin (hTHP-1 assay, HTRF readout; Procedures 1-3)). Details: Homo sapiens, THP-1, hTHP-1 assay containing 2% fetal bovine serum; average; class symbols; read-out: hTHP-1 IC50 (Average IC50 of compounds in hTHP-1 assay).
Assay type: cell-based, human
In short: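 PMA-differentiated (20 ng/ml, 16-18 h) THP-1 cells in RPMI with 2% FBS, 50,000 cells/well, preincubated 1 h with compound (final 0.0017-100 μM, 0.37% DMSO), then stimulated with 5 μM gramicidin for 2 h. IL-1β in cell-free supernatant measured by HTRF (620/668 nm).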

Structure (SMILES)	IC50
NCc1ccc(S(N)(=O)=NC(=O)Nc2c3c(cc4c2CCC4)CCC3)cc1 (single isomer, unassigned) [Example 411, (R) or (S)-4-(aminomethyl)-N′-((1,2,3,5,6,7-hexahydro-s-indacen-4-yl)carbamoyl)benzene-sulfonimidamide]	1 to 5 µM
CC(C)Cc1ccc(S(N)(=O)=NC(=O)Nc2c3c(cc4c2CCC4)CCC3)cn1 (single isomer, unassigned) [Example 416, (S) or (R)-N′-((1,2,3,5,6,7-hexahydro-s-indacen-4-yl)carbamoyl)-6-isobutylpyridine-3-sulfonimidamide]	0.2 to 1 µM
Cc1oc(S(N)(=O)=NC(=O)Nc2c3c(cc4c2CCC4)CCC3)cc1C(C)(C)O (stereo not drawn) [Example 1, N′-(1,2,3,5,6,7-hexahydro-s-indacen-4-ylcarbamoyl)-4-(2-hydroxypropan-2-yl)-5-methylfuran-2-sulfonimidamide]	0.008 to 0.04 µM
Cc1oc([S@@](N)(=O)=NC(=O)Nc2c3c(cc4c2CCC4)CCC3)cc1C(C)(C)O [Example 2, (S)—N′-(1,2,3,5,6,7-hexahydro-s-indacen-4-ylcarbamoyl)-4-(2-hydroxypropan-2-yl)-5-methylfuran-2-sulfonimidamide]	0.008 to 0.04 µM
CC(C)(C)OC(=O)NS(=O)(=NC(=O)Nc1c2c(cc3c1CCC3)CCC2)c1cnc(C(C)(C)O)s1 (stereo not drawn) [Example 7, Tert-butyl N-(1,2,3,5,6,7-hexahydro-s-indacen-4-ylcarbamoyl)-2-(2-hydroxypropan-2-yl)thiazole-5-sulfonimidoylcarbamate]	0.2 to 1 µM
Cc1oc(S(N)(=O)=NC(=O)Nc2c(C(C)C)cc(F)cc2C(C)C)cc1C(C)(C)O (stereo not drawn) [Example 10, N′-(4-fluoro-2,6-diisopropylphenylcarbamoyl)-4-(2-hydroxypropan-2-yl)-5-methylfuran-2-sulfonimidamide]	0.04 to 0.2 µM
CC(C)c1cc(F)cc(C(C)C)c1NC(=O)N=S(N)(=O)c1ccc(C(C)(C)O)cc1 (stereo not drawn) [Example 11, N′-(4-fluoro-2,6-diisopropylphenylcarbamoyl)-4-(2-hydroxypropan-2-yl)benzenesulfonimidamide]	5 to 30 µM
Cc1sc(S(N)(=O)=NC(=O)Nc2c3c(cc4c2CCC4)CCC3)cc1C(C)(C)O (stereo not drawn) [Example 12, N′-(1,2,3,5,6,7-hexahydro-s-indacen-4-ylcarbamoyl)-4-(2-hydroxypropan-2-yl)-5-methylthiophene-2-sulfonimidamide]	0.04 to 0.2 µM
CC(C)c1cc(OC(F)F)cc(C(C)C)c1NC(=O)N=S(N)(=O)c1sc(C(C)(C)O)cc1F (stereo not drawn) [Example 17, N′-(4-(difluoromethoxy)-2,6-diisopropylphenylcarbamoyl)-3-fluoro-5-(2-hydroxypropan-2-yl)thiophene-2-sulfonimidamide]	0.008 to 0.04 µM
CCc1cc(OC(F)F)cc(C(C)C)c1NC(=O)N=S(N)(=O)c1cnc(C(C)(C)O)s1 (stereo not drawn) [Example 18, N′-(4-(difluoromethoxy)-2-ethyl-6-isopropylphenylcarbamoyl)-2-(2-hydroxypropan-2-yl)thiazole-5-sulfonimidamide]	0.2 to 1 µM
Cc1cc(C(C)(C)O)ccc1S(N)(=O)=NC(=O)Nc1c2c(cc3c1CCC3)CCC2 (stereo not drawn) [Example 19, N′-(1,2,3,5,6,7-hexahydro-s-indacen-4-ylcarbamoyl)-4-(2-hydroxypropan-2-yl)-2-methylbenzenesulfonimidamide]	1 to 5 µM
CC(C)c1cc(F)cc(C(C)C)c1NC(=O)N=S(N)(=O)c1cccc(C(C)(C)O)c1 (stereo not drawn) [Example 22, N′-(4-fluoro-2,6-diisopropylphenylcarbamoyl)-3-(2-hydroxypropan-2-yl)benzenesulfonimidamide]	1 to 5 µM
Cc1cc(C(C)(C)O)sc1S(N)(=O)=NC(=O)Nc1c(C(C)C)cc(OC(F)F)cc1C(C)C (stereo not drawn) [Example 24, N′-(4-(difluoromethoxy)-2,6-diisopropylphenylcarbamoyl)-5-(2-hydroxypropan-2-yl)-3-methylthiophene-2-sulfonimidamide]	1 to 5 µM
CC(C)(O)c1csc(S(N)(=O)=NC(=O)Nc2c3c(c(C#N)c4c2CCC4)CCC3)c1 (stereo not drawn) [Example 26, N′-(8-cyano-1,2,3,5,6,7-hexahydro-s-indacen-4-ylcarbamoyl)-4-(2-hydroxypropan-2-yl)thiophene-2-sulfonimidamide]	0.04 to 0.2 µM
CC(C)(O)c1ncc(S(N)(=O)=NC(=O)Nc2c3c(c(OC(F)F)c4c2CCC4)CCC3)s1 (stereo not drawn) [Example 27, N′-(8-(difluoromethoxy)-1,2,3,5,6,7-hexahydro-s-indacen-4-ylcarbainoyl)-2-(2-hydroxypropan-2-yl)thiazole-5-sulfonimidamide]	0.2 to 1 µM
Cc1cc(C(C)(C)O)ccc1S(N)(=O)=NC(=O)Nc1c(C(C)C)cc(OC(F)F)cc1C1CC1 (stereo not drawn) [Example 29, N′-(2-cyclopropyl-4-(difluoromethoxy)-6-isopropylphenylcarbamoyl)-4-(2-hydroxypropan-2-yl)-2-methylbenzenesulfonimidamide]	5 to 30 µM
Cc1oc(S(N)(=O)=NC(=O)Nc2c(C(C)C)cc(C#N)c(F)c2C(C)C)cc1C(C)(C)O (stereo not drawn) [Example 33, N′-(4-cyano-3-fluoro-2,6-diisopropylphenylcarbamoyl)-4-(2-hydroxypropan-2-yl)-5-methylfuran-2-sulfonimidamide]	0.04 to 0.2 µM
CC(C)(O)c1cccc(S(N)(=O)=NC(=O)Nc2c3c(c(F)c4c2CCC4)CCC3)c1 (stereo not drawn) [Example 34, N′-(8-fluoro-1,2,3,5,6,7-hexahydro-s-indacen-4-ylcarbamoyl)-3-(2-hydroxypropan-2-yl)benzenesulfonimidamide]	1 to 5 µM
CC(C)c1cc(C#N)cc(C(C)C)c1NC(=O)N=S(N)(=O)c1ncc(C(C)(C)O)s1 (stereo not drawn) [Example 35, N′-(4-cyano-2,6-diisopropylphenylcarbamoyl)-5-(2-hydroxypropan-2-yl)thiazole-2-sulfonimidamide]	0.2 to 1 µM
CC(C)c1cc(F)cc(C(C)C)c1NC(=O)N=S(N)(=O)c1ccc(CN(C)C)cc1 (stereo not drawn) [Example 36, 4-((dimethylamino)methyl)-N′-(4-fluoro-2,6-diisopropylphenylcarbamoyl)-benzenesulfoniniidamide]	1 to 5 µM
CC(C)c1cc(OC(F)F)cc(C2CC2)c1NC(=O)N=S(N)(=O)c1ccc(CN(C)C)cc1 (stereo not drawn) [Example 37, N′-(2-cyclopropyl-4-(difluoromethoxy)-6-isopropylphenylcarbamoyl)-4-((dimethylamino)methyl)benzene sulfonimidamide]	1 to 5 µM
CC(C)c1cc(F)cc(C(C)C)c1NC(=O)N=S(N)(=O)c1ncc(C(C)(C)O)s1 (stereo not drawn) [Example 39, N′-(4-fluoro-2,6-diisopropylphenylcarbamoyl)-5-(2-hydroxypropan-2-yl)thiazole-2-sulfonimidamide]	0.2 to 1 µM
CC(C)c1cc(F)cc(C(C)C)c1NC(=O)N=S(N)(=O)c1cc(C(C)(C)O)cs1 (stereo not drawn) [Example 40, N′-(4-fluoro-2,6-diisopropylphenylcarbamoyl)-4-(2-hydroxypropan-2-yl)thiophene-2-sulfonimidamide]	0.04 to 0.2 µM
CC(C)c1cc(F)cc(C(C)C)c1NC(=O)N=S(N)(=O)c1ccc(S(C)(=O)=O)cc1 (stereo not drawn) [Example 42, N′-(4-fluoro-2,6-diisopropylphenylcarbamoyl)-4-(methylsulfonyl)benzenesulfonim idamide]	5 to 30 µM
CC(C)(O)c1ncc(S(N)(=O)=NC(=O)Nc2c3c(c(C#N)c4c2CCC4)CCC3)s1 (stereo not drawn) [Example 43, N′-(8-cyano-1,2,3,5,6,7-hexaliydro-s-indacen-4-ylcarbamoyl)-2-(2-hydroxypropan-2-yl)thiazole-5-sulfonimidamide]	0.04 to 0.2 µM
CC(C)(O)c1cccc(S(N)(=O)=NC(=O)Nc2c3c(cc4c2CCC4)CCC3)c1 (stereo not drawn) [Example 46, N′-(1,2,3,5,6,7-hexahydro-s-indacen-4-ylcarbamoyl)-3-(2-hydroxypropan-2-yl)benzenesulfonimidamide]	1 to 5 µM

Same assay, conditions: Homo sapiens, THP-1, hTHP-1 assay containing 2% fetal bovine serum; average; given as bound; read-out: hTHP-1 IC50 (Average IC50 of compounds in hTHP-1 assay)

Structure (SMILES)	IC50
NCc1ccc(S(N)(=O)=NC(=O)Nc2c3c(cc4c2CCC4)CCC3)cc1 (single isomer, unassigned) [Example 412, (S) or (R)-4-(aminomethyl)-N′-((1,2,3,5,6,7-hexahydro-s-indacen-4-yl)carbamoyl)benzene-sulfonimidamide]	> 30 µM
CC(C)Cc1ccc(S(N)(=O)=NC(=O)Nc2c3c(cc4c2CCC4)CCC3)cn1 (single isomer, unassigned) [Example 415, (R) or (S)-N′-((1,2,3,5,6,7-hexahydro-s-indacen-4-yl)carbamoyl)-6-isobutylpyridine-3-sulfonimidamide]	> 30 µM
CC(C)c1cc(-c2ccccc2CO)cc(C(C)C)c1NC(=O)N=S(N)(=O)c1ccc(CN(C)C)cc1 (stereo not drawn) [Compound 249]	> 30 µM
Cc1cc(NC(=O)N=S(N)(=O)c2cc(C)c(C(C)(C)O)s2)cc(C)n1 (stereo not drawn) [Example 9, N′-((2,6-dimethylpyridin-4-yl)carbamoyl)-4-methyl-5-(2-hydroxypropan-2-yl)thiophene-2-sulfonimidamide]	> 30 µM
